Experimental findings from patent publication US20080064643A1, “Myd88 Homodimerization Inhibitors” (priority 2004, published 2008) are described below.

Test [1] concerns IL-1-responsive human IL-8 promoter gene region. Nature of the test: reporter gene assay (RGA) of luciferase activity in CaCo2 cells stimulated with IL-1. The class given is cell-based. Particulars: substance 100 μM, IL-1 500 pg/mL. The text has this: It is based on transient co-transfection of CaCo2 human intestinal epithelial cells with a reporter gene plasmid whose luciferase reporter gene expression is under control of the IL-1-responsive human IL-8 promoter gene region. The second plasmid in co-transfection is a vector coding for a control Renilla luciferase reporter gene, whose constitutive expression is used to estimate unspecific cellular toxicity of tested compounds. The read-out of the assay has been defined as the Relative Response Ratio (RRR) for the firefly and the Renilla luciferase, as follows: [formula] where the experimental sample is the value in cont per second (cps) of the experimental reporter luminescence, as defined for any unknown sample. The positive control is the value in cps of the reporter luminescence, as defined for the sample which identifies the maximal induction by IL-1 in the absence of reference inhibitor compound. The negative control is the value in cps of the reporter luminescence, as defined for the sample which identifies the absence of induction by IL-1. For the non-inducible Renilla luciferase, the RRR has been defined as follows: [formula]
The RGA is the read-out of the above experiments, and it was run as follows:
Plate 6×10^6 adherent CaCo2 cells on 10 cm plates. After 18-24 hours culture medium is changed, using 9 mL of D-MEM+glutamine 580 mg/L, without FBS and antibiotics. For each plate, 26 μg of IL-1-responsive reporter vector DNA (pGL2-NA-INT) and 4 μg of control reporter vector DNA are then dissolved in 500 μL Optimem (Invitrogen). Lipofectamine 2000 Reagent (Invitrogen) 30 μL are then added to 500 μL Optimem; this latter reaction mix is incubated for 5 min at room temperature. The DNA mix is then added drop by drop to the Lipofectamine 2000 mix. The resulting DNA/Lipofectamine mix is incubated for 20 min at room temperature and it is added drop by drop over the culture plate, by gently rocking the plate itself. Culture plates are then incubated for about 6 hours at 37° C. and 5% CO2. Cells are then trypsinized and transferred in 96-well plates, at 5×10^4 cells/well in 100 μL of culture medium (D-MEM with FBS 1%,+glutamine 580 mg/L), as required by the experimental design. Afterwards, cells were incubated for 16-18 hours at 37° C. and 5% CO2 and treated as follows: • Take out culture medium from each well. • Add 60 μL of fresh culture medium to control cell wells. • Add 40 μL of fresh culture medium to IL-1-treated wells. • Add 40 μL of fresh culture medium and 20 μL of substance at a concentration of 100 μM and 0.4% DMSO to inhibitor substance wells. • Add 20 μL fresh culture medium supplemented with 0.4% DMSO in IL-1-treated wells and in control cell wells. • Incubate at 37° C. and 5% CO2 for 4 hours. • After 2 hours, stimulate with 20 μL of IL-1 (500 pg/mL) for two additional hours at 37° C. and 5% CO2. • Appropriate amount of luciferase standard protein is included in additional assay wells. • Add for each well 80 μL of firefly luciferase substrate (Dual-Glo Luciferase Assay System reagent). • Incubate at room temperature for 10 min. • Read the firefly luciferase output on the Veritas lumenometer (Turner BioSystems). • Immediately add to each well 80 μL of the Renilla luciferase substrate (Dual-Glo Luciferase Assay System reagent). • Incubate at room temperature for 10 min. • Read the Renilla luciferase output on the Veritas lumenometer (Turner BioSystems).
Compounds considered positive in the RGA assay were those that gave a percentage inhibition ≧20%.

For test [2], the target named is T1, MyD88 homodimer (Homo sapiens, UniProt Q99836).
T1 construct: incubated with purified protein GST-MyD88TIR; made in house; host or cells: HEK293 (myc-MyD88, transient expression)
Nature of the test: co-immunoprecipitation assay of MyD88 homodimerisation (myc-MyD88 / GST-MyD88TIR, Western blot). The test is classed as binding. Particulars: residual interaction in the MyD88 homodimer as percentage of the untreated protein; peptide 200 μM, 60 min at 4° C. The text has this: (§1) Preliminary studies on the inhibition of the homodimerisation of MyD88 have been conducted by the present inventors using a co-immunoprecipiation assay on a series of natural peptides (synthesised as acetylamide at the N terminal and as primary amide at the carboxyl terminal) comprising the consensus sequence of the BB loop. […] The protein myc-MyD88 is expressed temporarily in HEK293 cells and isolated from cell extracts by immunoprecipitation with the anti-myc antibody. The immunoprecipitated protein is incubated with purified protein GST-MyD88TIR for 60 min at 4° C. in the presence or absence of the synthetic peptide (final concentration 200 μM). After suitable washings, the proteins absorbed to the resin used for the immunoprecipitation are solubilised with SDS and analysed by Western blot for the presence of myc-MyD88 and GST-MyD88TIR. Percentage inhibition of NF-kB activation is also given for these two peptides

Test [3] relates to NF-kB. Nature of the test: NF-kB activation inhibition, preliminary studies on natural peptides (Table 1). The note with it: conditions not stated. The class given is cell-based.
Text: as §1

Test [4] relates to NF-kB. Nature of the test: NF-kB inhibition assay in HeLa cells stimulated with IL1α (Trans AM ELISA). The note with it: for % NF-κB INHIBITION: HeLa cells, compound 100 μM for 6 hours, then 5 ng/ml IL1α for 30 minutes; for inhibition at 100 µM: Homo sapiens, HeLa, read-out: % NF-κB INHIBITION
The test is classed as cell-based, Human. As to the method: The activation of NF-kB is an event that takes place downstream of the homodimerisation of MyD88 and its binding to the intracytoplasmic portions of number of receptor complexes. The ability of the compounds which are the subject of the present invention to inhibit the activation of NF-kB downstream of the amplification cascade of the signal triggered by IL1α was therefore evaluated.
All the molecules were assayed beforehand with the MTT cell viability test, verifying that the dose of compound used in the NF-kB inhibition assay was lower than the toxic dose.
HeLa* cells were cultured in EMEM (EBSS) medium supplemented with 2 mM glutamine+1% non-essential amino acids+7.5% FBS (Foetal Bovine Serum)+10 ml/l of a solution of penicillin-streptomycin (10,000 units/ml penicillin and 10 mg/ml streptomycin).
(All cell media and the various components were purchased from Sigma-Aldrich. *HeLa cell line Human Negroid cervix epithelioid carcinoma Human from SIGMA ALDRICH ECACC Ref No: 93021013. IL1α*=SIGMA I2778 Interleukin-1-alpha IL1a Human, recombinant expressed in E. coli).
The cells were used after a number of cell passages ranging from 14 to 35.
Cells are seeded in 6-well plates at a density of 300,000 cells/well in complete medium and incubated overnight at 37° C., 5% CO2.
After approximately 18 hours, the complete medium is eliminated, cells are washed twice with PBS 1× and 1 ml of FBS-free medium is added to each well.
The molecules to be tested are subsequently added to the medium at a concentration of 100 μM. Cells are then incubated for 6 hours at 37° C., 5% CO2.
All the molecules assayed were dissolved in DMSO.
An equivalent volume of DMSO is added to the negative controls, i.e. cells not treated with the molecules.
At the end of the treatment with the molecules, the cells are stimulated with 5 ng/ml of IL1α* for 30 minutes and incubated at 37° C., 5% CO2.
An equivalent volume of PBS/BSA 0.4% (solution used to dissolve IL1α) is added to the negative controls, i.e. non-stimulated cells.
After stimulation with IL1α the cells are washed twice with PBS 1× and collected by cell scraping.
The cells are then centrifuged at 800 rpm, 4° C., 10 min. The supernatants are eliminated. The pellets are re-suspended in lysis buffer**, incubated for 10 minutes at 4° C. and centrifuged at maximum speed at 4° C. The pellets are eliminated and the supernatants frozen at −80° C.
The total protein content is subsequently measured by Bradford Assay using, as the standard, BSA at known concentration, and as used in the ELISA assay as described here below.
Activation/inhibition of NF-kB is evaluated using the Trans AM# (Active Motif) kit.
Il Trans AM kit permits detection of the activation of NF-kB induced by IL1α, through a calorimetric reaction that is obtained at the end of a routine ELISA assay.
The kit provides 96-well plates derivatised with an oligonucleotide that contains the consensus site of NF-kB (5′-GGGACTTT-CC-3′). This oligonucleotide specifically binds only the active form of NF-kB which is released after stimulation with IL1α. The first antibody supplied for detecting NF-kB recognises the p65 epitope which is accessible only when the transcriptional factor is active and binds its target DBNA sequence.
The secondary antibody supplied is conjugated to horse radish peroxidase which, with the addition of a chromogenic substrate, makes it possible to obtain a calorimetric reaction that can be evaluated spectrophotometrically at the wavelength of 450 nm.
The samples are assayed in duplicate and 10 μg of each extract are loaded into each well.
At the end of the assay, the % inhibition is calculated by processing the values obtained in the spectrophotometric readings as follows:
IL*-C*/IL-C=% activation of NF-kB.
IL*=A450 of cells stimulated and treated with the study molecules.
C*=A450 of cells not stimulated and treated with the study molecules.
IL=A450 of cells stimulated with IL1α and not treated with the molecules.
C=A450 of cells not stimulated and not treated. […]

Starred links: 1 amine or outer side, 2 acyl side, 3 side chain; linkers in the order of their positions; H or OH if unused. Non-standard residues stand in square brackets, D forms with d. Residues, ends and D or L forms follow the SMILES beside them. *: point of attachment. AzaVal = azavaline, CC(C)N(N[*:1])C(=O)[*:2]; X1 = NC(=O)CN1CC[C@@]2(CCCN2*)C1=O; azaLeu = CC(C)CN(N[*:1])C(=O)[*:2]

T1 sequence (Q99836 whole entry): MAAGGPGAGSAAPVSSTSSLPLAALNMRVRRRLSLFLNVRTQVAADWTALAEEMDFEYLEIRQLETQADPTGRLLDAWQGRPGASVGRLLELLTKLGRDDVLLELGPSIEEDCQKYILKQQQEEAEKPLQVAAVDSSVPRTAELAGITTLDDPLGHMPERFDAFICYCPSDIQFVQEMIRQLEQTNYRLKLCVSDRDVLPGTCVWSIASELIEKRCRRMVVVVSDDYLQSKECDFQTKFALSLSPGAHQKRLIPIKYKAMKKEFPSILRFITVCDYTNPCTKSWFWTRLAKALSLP

For “H-Arg-Gly-AzaVal-Val-Pro-Gly-NH2 (H-RG[AzaVal]VPG-NH2; SMILES CC(C)[C@H](NC(=O)N(NC(=O)CNC(=O)[C@@H](N)CCCNC(=N)N)C(C)C)C(=O)N1CCC[C@H]1C(=O)NCC(N)=O) [ST2926]”, in test [1], the “% INHIBITION” value worked out at 20%.

As to Ac-RDVLPGT-NH2 [ST2348], in test [2], the “% residual interaction” value is reported as 29%. The “% NF-kB inhibition” value in test [3] is 37%. For “Ap-PTDLVRG-NH2 [ST2403, reference compound]”, in test [4] (HeLa cells stimulated with IL-1α), the “inhibition of NF-κB activation” value is “inactive”. Consider `CC(C)[C@H](NC(=O)[C@H](CC(=O)O)NC(=O)c1cccnc1)C(=O)N[C@H](C(=O)N1CCC[C@]12CCN(CC(N)=O)C2=O)C(C)C` [ST2794, PAM9-Asp-Val-Val-Beta2-NH2], for which the “% NF-κB INHIBITION” value in test [4] was 25%. Regarding “Ac-Azagly-Azagly-pro-leu-val-asp-arg-NH2 [ST3032]”, the “% INHIBITION” value in test [1] came to 21%. The same measure, in the same setting: the result for “Ac-Arg-Asp-Azagly-Val-Pro-Gly-NH2 [ST2927]” reads 22%. `COc1ccc(C(=O)N2CCC[C@]23CCN(CC(=O)N[C@H](C(N)=O)[C@@H](C)O)C3=O)cc1NC(=O)c1cccnc1` [ST2792, PAM9-SP02-Beta2-Thr-NH2]: the inhibition at 100 µM in test [4] amounted to 22%. Regarding Ac-RDVVPGG-NH2 [ST2350], the “% residual interaction” value in test [2] came out at 18%. In addition, the “% NF-kB inhibition” value in test [3] was found to be 20%. Take `CC(=O)N[C@H](CCCNC(=N)N)C(=O)N[C@H](CC(=O)O)C(=O)N[C@@H](C(=O)N[C@H](CC(C)C)C(=O)N1CCC[C@@]12CCN(CC(N)=O)C2=O)C(C)C` [ST2799, Ac-arg-asp-val-leu-Beta1-NH2] (Ac-[dR][dD][dV][dL]-X1): the “% NF-κB INHIBITION” value in test [4] is recorded as 23%.

As to “Ac-thr-Azagly-pro-leu-val-asp-arg-NH2 [ST2930]”, the “% INHIBITION” value in test [1] is listed as 24%.

In the case of “Ac-thr-gly-pro-leu-val-asp-arg-NH2 [ST2565]”, the “% NF-κB INHIBITION” value in test [4] was 30%. In the case of “Ac-Arg-Asp-AzaLeu-Val-Pro-Gly-NH2 (Ac-RD[azaLeu]VPG-NH2; SMILES CC(=O)N[C@@H](CCCNC(=N)N)C(=O)N[C@@H](CC(=O)O)C(=O)NN(CC(C)C)C(=O)N[C@H](C(=O)N1CCC[C@H]1C(=O)NCC(N)=O)C(C)C) [ST2928]”, the “% INHIBITION” value in test [1] worked out at 29%. For “Ac-Arg-Asp-Val-AzaVal-Pro-Gly-NH2 [ST2920]”, the “% INHIBITION” value in test [1] amounted to 25%. Turning to `CC(=O)NCC(=O)N1CCC[C@H]1C(=O)Nc1cccc(C(=O)N[C@@H](CCCNC(=N)N)C(N)=O)c1C` [ST2864, Ac-Gly-Pro-SP30-Arg-NH2], the inhibition at 100 µM in test [4] was determined as 16%.
